# Experimental data reported in patent US20180015072A1, “Tryptophan is a pro-drug for infectious diseases and cancers” (priority 2016, published 2018).
# How the values were obtained:
# vaccinia virus = assay type: cell-based
# [1] = tested on: human primary white cells
# Herpes simplex virus 1 = assay type: cell-based
# tacaribe virus = assay type: cell-based
# [2] = tested on: nun small cell lung cancer mice model; assay: nun small cell lung cancer mice model; assay type: in vivo; conditions: 80 mg/kg/day, China Tongi medical university
# rift valley fever virus = assay type: cell-based
# [3] = tested on: pancreatic cancer Mia PaCa2 cell; assay type: cell-based
# poliovirus = assay type: cell-based
# [4] = tested on: hand foot mouth disease mice model; assay: hand foot mouth disease mice model; assay type: in vivo; conditions: 320 mg/kg/day, China food and drug inspection Ins.
# human cytomegalovirus = assay type: cell-based
# [5] = tested on: Venezuelan equine encephalitis viruses; assay type: cell-based
# hepatitis B = assay type: cell-based
# yellow fever virus = assay type: cell-based
# hepatitis C virus = assay type: cell-based
# [6] = tested on: respiratory syncytial viruses; assay type: cell-based
# influenza A H1N1 viruses = assay type: cell-based
# dengue viruses = assay type: cell-based
# MERS coronavirus = assay type: cell-based
# chikungunya viruses = assay type: cell-based
SMILES,inhibition of vaccinia virus (vaccinia virus),safety for human primary white cells [1],inhibition of Herpes simplex virus 1 (Herpes simplex virus 1),inhibition of tacaribe virus (tacaribe virus),prevention and early stage treatment function in lung cancer mice model [2],inhibition of rift valley fever virus (rift valley fever virus),inhibition of Mia PaCa2 cell growth [3],inhibition of poliovirus (poliovirus),function in hand foot mouth disease mice model [4],inhibition of human cytomegalovirus (human cytomegalovirus),inhibition of Venezuelan equine encephalitis viruses [5],function against hepatitis B (hepatitis B),inhibition of yellow fever virus (yellow fever virus),inhibition of hepatitis C virus (hepatitis C virus),inhibition of respiratory syncytial viruses [6],inhibition of influenza A H1N1 viruses (influenza A H1N1 viruses),inhibition of dengue viruses (dengue viruses),inhibition of MERS coronavirus (MERS coronavirus),inhibition of chikungunya viruses (chikungunya viruses)
N[C@@H](Cc1c[nH]c2ccccc12)C(=O)O [Tryptophan],inhibit,safe,inhibit,inhibit,significant prevention and early stage treatment function,inhibit,inhibit,inhibit,significant function,inhibit,,,,,,,,,
OC[C@H]1O[C@@H](Oc2c[nH]c3ccccc23)[C@H](O)[C@@H](O)[C@@H]1O [Indican],inhibit,,inhibit,inhibit,significant prevention and early stage treatment function,inhibit,inhibit,inhibit,significant function,inhibit,inhibits,does not show function,inhibits,inhibits,inhibits,inhibits,inhibits,inhibits,inhibits
